Results from paper PMC6151726, “Design and Antiproliferative Evaluation of Novel Sulfanilamide Derivatives as Potential Tubulin Polymerization Inhibitors” (Molecules : A Journal of Synthetic Chemistry and Natural …, 2017).
In brackets after ≈: the same amount, converted by molar mass. Like-named read-outs stand apart in the source and are kept apart here.

Experiments:
[1] = system: MGC-803 (human gastric cancer cell line); test: MTT antiproliferative assay, MGC-803; assay type: cell-based; settings: exposure for 48 h, means ± SDs of three independent experiments
Description: (§1) All synthesized sulfonamide-1,2,3-triazole hybrids were evaluated for their anticancer activity against three cancer cell lines: MGC-803 (human gastric cancer cell line), MCF-7 (human breast cancer cell line), and PC-3 (human prostate cancer cell line) using a MTT (4,5-dimethyl-2-thiazolyl)-2,5-diphenyl-2-H-tetrazolium bromide) assay. The well-known tubulin polymerization inhibitor CA-4P was used as a control. In [24], 5-fluorouracil (5-Fu) was selected as the control in the antiproliferative evaluation assay of 1,2,3-triazole derivatives. Therefore, 5-Fu was also used as the reference drug in this MTT assay.
(§2) MGC-803 cells (human gastric cancer), MCF-7 (human breast cancer), PC-3 (human prostate cancer) and GES-1 (human gastric epithelial cell) were cultured in RPMI 1640 medium with 10% FBS and 100 U/mL penicillin and 0.1 mg/mL streptomycin in the 37 °C in an atmosphere containing 5% CO2. All cell lines were purchased from the China Center for Type Culture Collection (CCTCC, Shanghai, China). For pharmacological investigations, 10 mM stock solutions of the tested compounds were prepared with dimethyl sulfoxide (DMSO). […] The MTT assay was prepared according to the previous method.

[2] = system: MCF-7 (human breast cancer cell line); test: MTT antiproliferative assay, MCF-7; assay type: cell-based; settings: MCF7, exposure for 48 h, means ± SDs of three independent experiments
Description: as §1, §2

[3] = system: PC-3 (human prostate cancer cell line); test: MTT antiproliferative assay, PC-3; assay type: cell-based; settings: exposure for 48 h, means ± SDs of three independent experiments
Description: as §1, §2

[4] = system: MGC-803, MCF-7 and PC-3 cells; test: MTT antiproliferative assay, three cancer cell lines together; assay type: cell-based; settings: Homo sapiens; range over MGC-803, MCF-7 and PC-3; read-out: IC50 values ranging over three cell lines
Description: as §1, §2

[5] = MTT assay on normal cells, GES-1; assay type: cell-based; settings: GES-1 cells (normal gastric epithelial cell line), normal human gastric epithelial cell line, read-out: inhibitory effect / cytotoxicity against GES-1
Description: Compound 11f was further examined for possible inhibitory effects against GES-1 (normal human gastric epithelial cell line).
as §2

tubulin [6] = test: In vitro tubulin polymerization inhibition assay; assay type: biochemical; settings: 5.6 mg/mL tubulin in PEM buffer, read-out: inhibitory concentration that reduced the polymerized tubulin by 50% (IC50)
Description: The inhibitory concentrations that reduced the polymerized tubulin by 50% of CA-4P was 2.40 μM [25]. To investigate whether the synthesized 1,2,3-triazole-sulfonamide hybrids target the tubulin-microtubule system, the in vitro tubulin polymerization inhibition activity of compound 11f was evaluated because of its best antiproliferative activity results among all the tested compounds in the initial cytotoxicity screening. When tubulin was incubated with the tested 1,2,3-triazole-sulfonamide 11f at the indicated concentrations, an increased fluorescence intensity was obvious.
Tubulin polymerization in vitro was assyed with 100 μL samples and monitored by absorbance at 350 nm (Filter A00019x) in 96-well plates with an Appliskan plate reader (Thermo Fisher Scientific, Waltham, MA, USA). An amount of 5.6 mg/mL tubulin was resuspended in PEM buffer (80 mM PIPES (pH 6.9), 1 mM EGTA, 0.5 mM MgCl2, […], 10.2% (v/v) glycerol) and then was preincubated with compound 11f or vehicle DMSO on ice. Data were exported using the Thermo Scientific SkanIt software of the Appliskan (version 2.3) and Excel software was used to generate plots. For convenience, data were normalized to the minimum absorbance value of the initial stable plateau. This tubulin polymerization inhibition assay was measured according to the method originally.

PC3 cells = system: PC3 cells; set-up: method as in PMID 27423028; settings: read-out: IC50 against PC3 cells; cited from earlier work
4T1 mammary tumor cells = settings: 45 mg/kg; cited from earlier work
CDK2 = system: CDK2; set-up: method as in PMID 28005359; settings: cited from earlier work
CDK1 = system: CDK1; set-up: method as in PMID 28005359; settings: cited from earlier work
[7] = system: HCT116 human colon carcinoma; set-up: method as in PMID 10508428; settings: cell proliferation assay; cited from earlier work
murine leukemia = system: murine leukemia; set-up: method as in PMID 26501246; settings: read-out: IC50 against the proliferation of murine leukemia; cited from earlier work
tubulin [8] = system: tubulin; set-up: method as in PMID 24923521; settings: read-out: IC50 inhibition of tubulin assembly; cited from earlier work
A2780AD cell line = system: A2780AD cell line; set-up: method as in PMID 28640209; settings: read-out: IC50 antiproliferative activity against A2780AD cell line; cited from earlier work

IC50 [1]	IC50 [2]	IC50 ([3]; Homo sapiens, 48 h)	melting point	Compound	other results
15.6 ± 0.4 µM	21.2 ± 3.6 µM	13.9 ± 1.5 µM		O=c1[nH]cc(F)c(=O)[nH]1 [5-Fu, 5-Fluorouracil, reference compound]	
> 100 µM	> 100 µM	> 100 µM		C#CCNS(=O)(=O)c1cccs1 [9a, N-(Prop-2-yn-1-yl)thiophene-2-sulfonamide]	
> 100 µM	> 100 µM	> 100 µM	193 to 196 °C	C#CCNS(=O)(=O)c1ccc2oc(=O)ccc2c1 [9d, 2-Oxo-N-(prop-2-yn-1-yl)-2H-chromene-6-sulfonamide]	
> 100 µM	> 100 µM	> 100 µM		C#CCNS(=O)(=O)c1ccc(C)cc1 [9f, 4-Methyl-N-(prop-2-yn-1-yl)benzenesulfonamide]	
17 ± 1.8 µM	78.5 ± 2.2 µM	24.6 ± 0.9 µM	104 to 106 °C	O=S(=O)(NCc1cn(Cc2cccc(Oc3ccccc3)c2)nn1)c1cccs1 [11a, N-((1-(3-Phenoxybenzyl)-1H-1,2,3-triazol-4-yl)methyl)thiophene-2-sulfonamide]	
15.3 ± 0.8 µM	49.9 ± 1.2 µM	19.8 ± 0.6 µM	110 to 111 °C	O=S(=O)(NCc1cn(Cc2cccc(Oc3ccccc3)c2)nn1)c1ccc(Cl)s1 [11b, 5-Chloro-N-((1-(3-phenoxybenzyl)-1H-1,2,3-triazol-4-yl)methyl)thiophene-2-sulfonamide]	
31 ± 2.2 µM	34.7 ± 2.6 µM	49.4 ± 1 µM	111 to 112 °C	O=S(=O)(NCc1cn(Cc2cccc(Oc3ccccc3)c2)nn1)c1ccc(Br)s1 [11c, 5-Bromo-N-((1-(3-phenoxybenzyl)-1H-1,2,3-triazol-4-yl)methyl)thiophene-2-sulfonamide]	
88.8 ± 0.5 µM	36.4 ± 2 µM	34.1 ± 0.3 µM	144 to 146 °C	O=c1ccc2cc(S(=O)(=O)NCc3cn(Cc4cccc(Oc5ccccc5)c4)nn3)ccc2o1 [11d, 2-Oxo-N-((1-(3-phenoxybenzyl)-1H-1,2,3-triazol-4-yl)methyl)-2H-chromene-6-sulfonamide]	IC50 [4]: 34.1 to 88.8 µM
21.7 ± 0.1 µM	39.6 ± 5 µM	6.4 ± 1.2 µM	127 to 130 °C	O=S(=O)(NCc1cn(Cc2cccc(Oc3ccccc3)c2)nn1)c1ccccc1 [11e, N-((1-(3-Phenoxybenzyl)-1H-1,2,3-triazol-4-yl)methyl)benzenesulfonamide]	
13.7 ± 2.9 µM	15.7 ± 0.2 µM	4.08 µM	118 to 121 °C	Cc1ccc(S(=O)(=O)NCc2cn(Cc3cccc(Oc4ccccc4)c3)nn2)cc1 [11f, 4-Methyl-N-((1-(3-phenoxybenzyl)-1H-1,2,3-triazol-4-yl)methyl)benzenesulfonamide]	IC50 [3]: 4.1 ± 1.4 µM; IC50 [5]: > 64 µM; IC50 (tubulin [6]): 2.41 µM; IC50 [4]: 4.1 to 15.7 µM
> 100 µM	54.9 ± 1.7 µM	7.1 ± 0.5 µM	137 to 139 °C	CC(C)(C)c1ccc(S(=O)(=O)NCc2cn(Cc3cccc(Oc4ccccc4)c3)nn2)cc1 [11g, 4-(Tert-butyl)-N-((1-(3-phenoxybenzyl)-1H-1,2,3-triazol-4-yl)methyl)benzenesulfonamide]	
18.4 ± 0.7 µM	24.6 ± 1.6 µM	24.7 ± 3 µM	111 to 113 °C	Cc1cc(C)c(S(=O)(=O)NCc2cn(Cc3cccc(Oc4ccccc4)c3)nn2)c(C)c1 [11h, 2,4,6-Trimethyl-N-((1-(3-phenoxybenzyl)-1H-1,2,3-triazol-4-yl)methyl)benzenesulfonamide]	
15.3 ± 0.5 µM	77.5 ± 0.7 µM	22.7 ± 0.5 µM	97 to 99 °C	O=S(=O)(NCc1cn(Cc2cccc(Oc3ccccc3)c2)nn1)c1ccccc1Cl [11i, 2-Chloro-N-((1-(3-phenoxybenzyl)-1H-1,2,3-triazol-4-yl)methyl) benzenesulfonamide]	
41.3 ± 2.3 µM	> 100 µM	> 100 µM	145 to 147 °C	Cc1ccc(S(=O)(=O)NCc2cn(Cc3cccc(C#N)c3)nn2)cc1 [11j, N-((1-(3-Cyanobenzyl)-1H-1,2,3-triazol-4-yl)methyl)-4-methylbenzenesulfonamide]	
75.8 ± 0.6 µM	> 100 µM	> 100 µM	145 to 148 °C	Cc1ccc(S(=O)(=O)NCc2cn(Cc3cccc(C)c3)nn2)cc1 [11k, 4-Methyl-N-((1-(3-methylbenzyl)-1H-1,2,3-triazol-4-yl)methyl)benzenesulfonamide]	
77.2 ± 7.8 µM	> 100 µM	> 100 µM	112 to 114 °C	COc1cccc(Cn2cc(CNS(=O)(=O)c3ccc(C)cc3)nn2)c1 [11l, N-((1-(3-Methoxybenzyl)-1H-1,2,3-triazol-4-yl)methyl)-4-methylbenzenesulfonamide]	
				O=S1(=O)CCCN(S(=O)(=O)c2ccc(-c3cnc(C4CC4)o3)cc2)c2ccccc21 [BA-3P]	IC50 (PC3 cells): 5.88 µM
				NS(=O)(=O)c1ccc(NC(=O)Nc2cccc([N+](=O)[O-])c2)cc1 [compound 1]	formation of metastases by 4T1 mammary tumor cells (4T1 mammary tumor cells): significantly inhibited the formation of metastases
				NS(=O)(=O)c1ccc(Nc2nc(-c3cccc(-c4ccccc4)c3)c3nc[nH]c3n2)cc1 [compound 3]	IC50 (CDK2): 0.044 µM; fold less active toward CDK1 than CDK2 (CDK1; CDK1 vs CDK2): ~ 2000 fold; IC50 (CDK1): 86 µM
				NS(=O)(=O)c1ccc(S(=O)(=O)Nc2cccc3c(Cl)c[nH]c23)cc1 [compound 4, N-(3-chloro-7-indolyl)-1,4-benzenedisulfonamide]	IC50 against HCT116 human colon carcinoma [7]: 0.11 µg/mL (≈ 0.285 µM)
				Nc1nc(Cl)c2ncn(Cc3cn(C[C@H](OCc4ccccc4)[C@@H](O)P(=O)(OCc4ccccc4)OCc4ccccc4)nn3)c2n1 [compound 5]	IC50 (murine leukemia): 21 µM
				COc1cc2c(cc1O)CC[C@@H]1[C@@H]2CC[C@@]2(C)[C@H]1CC[C@@]2(O)c1cn(-c2ccc(OC(F)(F)F)cc2)nn1 [compound 7]	IC50 (tubulin [8]): 5.9 µM
				Quinolin-6-yloxyacetamide	IC50 (A2780AD cell line): 0.262 µM
